Results on one compound are retold here after publication PMC5218480 (PLoS ONE, 2017).

The assay has as its system MV-4-11 cells. Put plainly: Gene expression microarray analysis (Affymetrix PrimeView) and GSEA. The class given is cell-based, human. The arrangement: RFU PODN (11730768_x_at) / Fold change /veh PODN (11730768_x_at) / RFU LINC00158 (11744669_a_at) / Fold change /veh LINC00158 (11744669_a_at) / RFU DUSP10 (11751237_a_at) / Fold change /veh DUSP10 (11751237_a_at) / RFU ID3 (11757404_x_at) / Fold change /veh ID3 (11757404_x_at) / RFU PLEKHG5 (11737974_s_at) / Fold change /veh PLEKHG5 (11737974_s_at) / RFU LRRC4B (11730491_at) / Fold change /veh LRRC4B (11730491_at) / RFU GIMAP4 (11747438_a_at) / Fold change /veh GIMAP4 (11747438_a_at) / RFU KRT8 (11758183_x_at) / Fold change /veh KRT8 (11758183_x_at) / RFU CNN1 (11734310_a_at) / Fold change /veh CNN1 (11734310_a_at) / RFU VPS37D (11726825_at) / Fold change /veh VPS37D (11726825_at) / RFU C10orf10 (11716522_x_at) / Fold change /veh C10orf10 (11716522_x_at) / RFU KIR2DL2 /// KIR2DL4 /// KIR2DL5A /// KIR2DL5B /// KIR2DS1 /// KIR2DS2 /// KIR2DS3 /// KIR2DS4 /// KIR3DL3 /// KIR3DL3 /// KIR3DS1 (11738374_at) / Fold change /veh KIR2DL2 /// KIR2DL4 /// KIR2DL5A /// KIR2DL5B /// KIR2DS1 /// KIR2DS2 /// KIR2DS3 /// KIR2DS4 /// KIR3DL3 /// KIR3DL3 /// KIR3DS1 (11738374_at) / RFU C1QL1 (11718748_at) / Fold change /veh C1QL1 (11718748_at) / RFU TMPRSS4 (11747572_a_at) / Fold change /veh TMPRSS4 (11747572_a_at) / RFU HAMP (11756126_x_at) / Fold change /veh HAMP (11756126_x_at) / RFU RNFT2 (11725882_a_at) / Fold change /veh RNFT2 (11725882_a_at) / RFU NR4A2 (11747474_a_at) / Fold change /veh NR4A2 (11747474_a_at) / RFU ABCC12 (11746883_a_at) / Fold change /veh ABCC12 (11746883_a_at) / RFU TMEM136 (11760407_x_at) / Fold change /veh TMEM136 (11760407_x_at) / RFU CLDN22 /// WWC2 (11732394_at) / Fold change /veh CLDN22 /// WWC2 (11732394_at) / RFU HLA-DPB1 (11760878_x_at) / Fold change /veh HLA-DPB1 (11760878_x_at) / RFU SPINT1 (11716480_a_at) / Fold change /veh SPINT1 (11716480_a_at) / RFU GAP43 (11754022_s_at) / Fold change /veh GAP43 (11754022_s_at) / RFU A4GNT (11735810_at) / Fold change /veh A4GNT (11735810_at) / RFU PRB3 (11715151_x_at) / Fold change /veh PRB3 (11715151_x_at) / RFU TUBB4B (11761932_at) / Fold change /veh TUBB4B (11761932_at) / RFU CAPN14 (11732068_a_at) / Fold change /veh CAPN14 (11732068_a_at) / RFU TMCC2 (11721928_a_at) / Fold change /veh TMCC2 (11721928_a_at) / RFU IRGQ (11745062_a_at) / Fold change /veh IRGQ (11745062_a_at) / RFU FAM174B (11720279_a_at) / Fold change /veh FAM174B (11720279_a_at) / RFU TMPRSS4 (11748680_a_at) / Fold change /veh TMPRSS4 (11748680_a_at) / RFU FAM212B (11763350_a_at) / Fold change /veh FAM212B (11763350_a_at) / RFU PLEKHG5 (11743358_a_at) / Fold change /veh PLEKHG5 (11743358_a_at) / RFU ZSCAN30 (11745921_a_at) / Fold change /veh ZSCAN30 (11745921_a_at) / RFU CMKLR1 (11741424_a_at) / Fold change /veh CMKLR1 (11741424_a_at) / RFU LOC101060620 /// MAPK8IP1 (11723275_at) / Fold change /veh LOC101060620 /// MAPK8IP1 (11723275_at) / RFU SPTSSB (11747773_x_at) / Fold change /veh SPTSSB (11747773_x_at) / RFU PRSS12 (11739890_at) / Fold change /veh PRSS12 (11739890_at) / RFU BIN1 (11741810_x_at) / Fold change /veh BIN1 (11741810_x_at) / RFU WNT11 (11732464_a_at) / Fold change /veh WNT11 (11732464_a_at) / RFU C10orf10 (11716521_a_at) / Fold change /veh C10orf10 (11716521_a_at) / RFU C5orf56 (11738089_at) / Fold change /veh C5orf56 (11738089_at) / RFU CYB561 (11721691_x_at) / Fold change /veh CYB561 (11721691_x_at) / RFU ANKRD19P (11752326_a_at) / Fold change /veh ANKRD19P (11752326_a_at) / RFU OR2T12 /// OR2T33 /// OR2T8 (11738714_s_at) / Fold change /veh OR2T12 /// OR2T33 /// OR2T8 (11738714_s_at) / RFU VCAN (11748164_a_at) / Fold change /veh VCAN (11748164_a_at) / RFU JSRP1 (11732532_at) / Fold change /veh JSRP1 (11732532_at) / RFU KRTAP10-11 (11738290_x_at) / Fold change /veh KRTAP10-11 (11738290_x_at) / RFU MYO3A (11730013_a_at) / Fold change /veh MYO3A (11730013_a_at) / RFU EBF3 (11725865_a_at) / Fold change /veh EBF3 (11725865_a_at) / RFU CAMK2N1 (11719241_x_at) / Fold change /veh CAMK2N1 (11719241_x_at) / RFU C5orf56 (11738088_a_at) / Fold change /veh C5orf56 (11738088_a_at) / RFU OLFML3 (11715873_a_at) / Fold change /veh OLFML3 (11715873_a_at) / RFU LOC100653217 /// NTM (11731650_a_at) / Fold change /veh LOC100653217 /// NTM (11731650_a_at) / RFU MAPK11 (11762145_a_at) / Fold change /veh MAPK11 (11762145_a_at) / RFU FIZ1 (11724087_x_at) / Fold change /veh FIZ1 (11724087_x_at) / RFU OASL (11726364_x_at) / Fold change /veh OASL (11726364_x_at) / RFU SOX15 (11748057_x_at) / Fold change /veh SOX15 (11748057_x_at) / RFU CD79A (11719716_a_at) / Fold change /veh CD79A (11719716_a_at) / RFU HIST1H1D (11736915_at) / Fold change /veh HIST1H1D (11736915_at) / RFU CASKIN2 (11723855_a_at) / Fold change /veh CASKIN2 (11723855_a_at) / RFU LOC730098 (11760151_x_at) / Fold change /veh LOC730098 (11760151_x_at) / RFU OR4N2 (11742367_at) / Fold change /veh OR4N2 (11742367_at) / RFU PRRT2 (11749266_a_at) / Fold change /veh PRRT2 (11749266_a_at) / RFU SNX32 (11753110_a_at) / Fold change /veh SNX32 (11753110_a_at) / RFU CDHR5 (11726645_a_at) / Fold change /veh CDHR5 (11726645_a_at) / RFU RCAN1 (11760418_a_at) / Fold change /veh RCAN1 (11760418_a_at) / RFU FAM167A (11723789_a_at) / Fold change /veh FAM167A (11723789_a_at) / RFU FAM26E (11764081_at) / Fold change /veh FAM26E (11764081_at) / RFU ISYNA1 (11749810_s_at) / Fold change /veh ISYNA1 (11749810_s_at) / RFU ACY1 (11761880_at) / Fold change /veh ACY1 (11761880_at) / RFU 11764098_at / Fold change /veh 11764098_at / RFU SAMD14 (11745864_x_at) / Fold change /veh SAMD14 (11745864_x_at) / RFU NPB (11741838_a_at) / Fold change /veh NPB (11741838_a_at) / RFU TMPRSS6 (11731388_a_at) / Fold change /veh TMPRSS6 (11731388_a_at) / RFU KRTAP10-2 (11738614_at) / Fold change /veh KRTAP10-2 (11738614_at) / RFU ARHGAP8 /// PRR5-ARHGAP8 (11727945_x_at) / Fold change /veh ARHGAP8 /// PRR5-ARHGAP8 (11727945_x_at) / RFU KRTAP5-7 /// NADSYN1 (11734609_at) / Fold change /veh KRTAP5-7 /// NADSYN1 (11734609_at) / RFU RASL12 (11751679_a_at) / Fold change /veh RASL12 (11751679_a_at) / RFU CDKN2B (11736163_a_at) / Fold change /veh CDKN2B (11736163_a_at) / RFU PRF1 (11729649_at) / Fold change /veh PRF1 (11729649_at) / RFU, ZNF638 /// ZNF638-IT1 / Fold change vs veh, ZNF638 /// ZNF638-IT1 / RFU, PANK3 / Fold change vs veh, PANK3 / RFU, SH3YL1 / Fold change vs veh, SH3YL1 / RFU, ZEB2 / Fold change vs veh, ZEB2 / RFU, NRIP1 / Fold change vs veh, NRIP1 / RFU, PTTG1IP / Fold change vs veh, PTTG1IP / RFU, CAPN2 / Fold change vs veh, CAPN2 / RFU, MED14 / Fold change vs veh, MED14 / RFU, SNORA58 / Fold change vs veh, SNORA58 / RFU, C1orf63 / Fold change vs veh, C1orf63 / RFU, LRRFIP1 / Fold change vs veh, LRRFIP1 / RFU, NDUFAF7 / Fold change vs veh, NDUFAF7 / RFU, SLC12A2 / Fold change vs veh, SLC12A2 / RFU, IBTK / Fold change vs veh, IBTK / RFU, ESF1 / Fold change vs veh, ESF1 / Fold change vs veh, TMEM50B / RFU, TAOK1 / Fold change vs veh, TAOK1 / RFU, ACBD3 / Fold change vs veh, ACBD3 / RFU, TMA16 / Fold change vs veh, TMA16 / RFU, RWDD3 / Fold change vs veh, RWDD3 / RFU, BCAT1 / Fold change vs veh, BCAT1 / RFU, EDEM3 / Fold change vs veh, EDEM3 / RFU, TMEM33 / Fold change vs veh, TMEM33 / RFU, WDR75 / Fold change vs veh, WDR75 / RFU, AHCTF1 / Fold change vs veh, AHCTF1 / RFU, TFRC / Fold change vs veh, TFRC / RFU, ZDHHC17 / Fold change vs veh, ZDHHC17 / RFU, NOM1 / Fold change vs veh, NOM1 / RFU, ARL8B / Fold change vs veh, ARL8B / RFU, ZBTB11 / Fold change vs veh, ZBTB11 / RFU, TAMM41 / Fold change vs veh, TAMM41 / RFU, KIAA1704 /// LOC100996395 / Fold change vs veh, KIAA1704 /// LOC100996395 / RFU, ING1 / Fold change vs veh, ING1 / RFU, TRMT61B / Fold change vs veh, TRMT61B / RFU, FUBP3 / Fold change vs veh, FUBP3 / RFU, TP53 / Fold change vs veh, TP53 / RFU, TNKS2 / Fold change vs veh, TNKS2 / RFU, ZFP14 / Fold change vs veh, ZFP14 / RFU, ACTR2 / Fold change vs veh, ACTR2 / RFU, PPP3R1 / Fold change vs veh, PPP3R1 / RFU, PIK3R1 / Fold change vs veh, PIK3R1 / RFU, HNRNPA1 / Fold change vs veh, HNRNPA1 / RFU, RNF170 / Fold change vs veh, RNF170 / RFU, ZNF28 / Fold change vs veh, ZNF28 / RFU, RNGTT / Fold change vs veh, RNGTT / RFU, OGT / Fold change vs veh, OGT / RFU, BRD1 / Fold change vs veh, BRD1 / RFU, MARS / Fold change vs veh, MARS / RFU, ZNF655 / Fold change vs veh, ZNF655 / RFU, FAHD1 / Fold change vs veh, FAHD1 / RFU, BDP1 / Fold change vs veh, BDP1 / RFU, LRRCC1 / Fold change vs veh, LRRCC1 / RFU, ARID1A / Fold change vs veh, ARID1A / RFU, ZNF146 / Fold change vs veh, ZNF146 / RFU, ZNF330 / Fold change vs veh, ZNF330 / RFU, GPN3 / Fold change vs veh, GPN3 / RFU, C9orf123 / Fold change vs veh, C9orf123 / RFU, N4BP2L2 / Fold change vs veh, N4BP2L2 / RFU, ARFIP1 / Fold change vs veh, ARFIP1 / RFU, FAM179B / Fold change vs veh, FAM179B / RFU, BCL10 / Fold change vs veh, BCL10 / RFU, UHRF1BP1L / Fold change vs veh, UHRF1BP1L / RFU, BET1 / Fold change vs veh, BET1 / RFU, CNOT2 / Fold change vs veh, CNOT2 / RFU, ZNF268 / Fold change vs veh, ZNF268 / Fold change vs veh, ZNF507 / RFU, DGCR2 / Fold change vs veh, DGCR2 / RFU, WDSUB1 / Fold change vs veh, WDSUB1 / Fold change vs veh, HSP90B1 /// MIR3652 / RFU, ADSS / Fold change vs veh, ADSS / RFU, GK / Fold change vs veh, GK / RFU, ZNF148 / Fold change vs veh, ZNF148 / RFU, TAF9 / Fold change vs veh, TAF9 / RFU, SLC1A5 / Fold change vs veh, SLC1A5 / RFU, SLMO2 / Fold change vs veh, SLMO2 / RFU, ABCC4 / Fold change vs veh, ABCC4 / RFU, LOC101060439 /// RAP1B / Fold change vs veh, LOC101060439 /// RAP1B / RFU, RFX7 / Fold change vs veh, RFX7 / RFU, GTPBP10 / Fold change vs veh, GTPBP10 / RFU, CNEP1R1 / Fold change vs veh, CNEP1R1 / RFU, BIVM-ERCC5 /// ERCC5 / Fold change vs veh, BIVM-ERCC5 /// ERCC5 / RFU, ILF3 / Fold change vs veh, ILF3 / RFU 11762660_at / Fold change /veh 11762660_at / RFU VCAN (11757783_s_at) / Fold change /veh VCAN (11757783_s_at) / RFU DDX43 (11728927_at) / Fold change /veh DDX43 (11728927_at) / RFU KRT8 (11758188_x_at) / Fold change /veh KRT8 (11758188_x_at) / RFU NKD1 (11759106_at) / Fold change /veh NKD1 (11759106_at) / RFU SRD5A1 (11742802_a_at) / Fold change /veh SRD5A1 (11742802_a_at) / RFU TPSAB1 /// TPSB2 (11721975_s_at) / Fold change /veh TPSAB1 /// TPSB2 (11721975_s_at) / RFU GSTM3 (11746129_a_at) / Fold change /veh GSTM3 (11746129_a_at) / RFU IL23R (11737362_x_at) / Fold change /veh IL23R (11737362_x_at) / RFU TMEM51 (11727254_a_at) / Fold change /veh TMEM51 (11727254_a_at) / RFU PIWIL2 (11732686_x_at) / Fold change /veh PIWIL2 (11732686_x_at) / RFU ORM1 (11744905_x_at) / Fold change /veh ORM1 (11744905_x_at) / RFU CCDC152 (11743942_at) / Fold change /veh CCDC152 (11743942_at) / RFU ECM1 (11717891_a_at) / Fold change /veh ECM1 (11717891_a_at) / RFU IL23R (11748794_a_at) / Fold change /veh IL23R (11748794_a_at) / RFU TNFAIP8L3 (11732012_x_at) / Fold change /veh TNFAIP8L3 (11732012_x_at) / RFU MBOAT4 (11741988_at) / Fold change /veh MBOAT4 (11741988_at) / RFU 11764193_at / Fold change /veh 11764193_at / RFU TMEM53 (11763286_at) / Fold change /veh TMEM53 (11763286_at) / RFU MAGEB2 (11727129_at) / Fold change /veh MAGEB2 (11727129_at) / RFU TMEM200A (11744735_a_at) / Fold change /veh TMEM200A (11744735_a_at) / RFU CCDC152 (11751479_a_at) / Fold change /veh CCDC152 (11751479_a_at) / RFU FAM211A (11726209_a_at) / Fold change /veh FAM211A (11726209_a_at) / RFU RGS16 (11746705_a_at) / Fold change /veh RGS16 (11746705_a_at) / RFU VCAN (11755009_s_at) / Fold change /veh VCAN (11755009_s_at) / RFU RHOB (11743442_s_at) / Fold change /veh RHOB (11743442_s_at) / RFU RGS16 (11720943_a_at) / Fold change /veh RGS16 (11720943_a_at) / RFU RGS16 (11720944_at) / Fold change /veh RGS16 (11720944_at) / RFU, VPS4B / Fold change vs veh, VPS4B / RFU, CREB1 / Fold change vs veh, CREB1 / RFU, DNAJC13 / Fold change vs veh, DNAJC13 / RFU, GNAQ / Fold change vs veh, GNAQ / RFU, CDK5R1 / Fold change vs veh, CDK5R1 / RFU, ZRANB3 / Fold change vs veh, ZRANB3 / RFU, CUL4A / Fold change vs veh, CUL4A / RFU, CCNY / Fold change vs veh, CCNY / RFU, UFL1 / Fold change vs veh, UFL1 / RFU, COG3 / Fold change vs veh, COG3 / RFU, DIAPH2 / Fold change vs veh, DIAPH2 / RFU, SKA2 / Fold change vs veh, SKA2 / RFU, AFF3 / Fold change vs veh, AFF3 / RFU, LMF1 / Fold change vs veh, LMF1 / RFU, IPO11 / Fold change vs veh, IPO11 / RFU, DFFB / Fold change vs veh, DFFB / RFU, FOXP1 / Fold change vs veh, FOXP1 / RFU, CARD8 / Fold change vs veh, CARD8 / RFU, STRN3 / Fold change vs veh, STRN3 / RFU, ADK / Fold change vs veh, ADK / RFU, RASSF2 / Fold change vs veh, RASSF2 / RFU, WIPF1 / Fold change vs veh, WIPF1 / RFU, LARP1B / Fold change vs veh, LARP1B / RFU, RASA1 / Fold change vs veh, RASA1 / RFU, RB1 / Fold change vs veh, RB1 / RFU, PPFIA1 / Fold change vs veh, PPFIA1 / RFU, MAT2A / Fold change vs veh, MAT2A / RFU, CCT5 / Fold change vs veh, CCT5 / RFU, WDR92 / Fold change vs veh, WDR92 / RFU, CUX1 / Fold change vs veh, CUX1 / RFU, TTC7A / Fold change vs veh, TTC7A / RFU, TMEM135 / Fold change vs veh, TMEM135 / RFU, DEPTOR / Fold change vs veh, DEPTOR / RFU, CPM / Fold change vs veh, CPM / RFU, DNAJB6 / Fold change vs veh, DNAJB6 / RFU, CACNA2D3 / Fold change vs veh, CACNA2D3 / RFU, DTX4 / Fold change vs veh, DTX4 / RFU, TFCP2 / Fold change vs veh, TFCP2 / RFU, GMCL1 /// GMCL1P1 / Fold change vs veh, GMCL1 /// GMCL1P1 / RFU, AEBP2 / Fold change vs veh, AEBP2 / RFU, SNHG1 /// SNORD22 /// SNORD25 /// SNORD26 /// SNORD27 /// SNORD28 /// SNORD29 /// SNORD31 / Fold change vs veh, SNHG1 /// SNORD22 /// SNORD25 /// SNORD26 /// SNORD27 /// SNORD28 /// SNORD29 /// SNORD31 / Fold change (Aza/veh), C12orf56 (ProbeSet 11735607_a_at) / Fold change (ACY-1035/veh), C12orf56 (ProbeSet 11735607_a_at) / Fold change (Aza/veh), FGFR1OP (ProbeSet 11751329_s_at) / Fold change (ACY-1035/veh), FGFR1OP (ProbeSet 11751329_s_at) / Fold change (Aza/veh), VPS36 (ProbeSet 11739960_a_at) / Fold change (ACY-1035/veh), VPS36 (ProbeSet 11739960_a_at) / RFU SYPL1 (11715823_x_at) / Fold change /veh SYPL1 (11715823_x_at) / RFU IGFBP7 (11715501_s_at) / Fold change /veh IGFBP7 (11715501_s_at) / RFU REEP3 (11722064_at) / Fold change /veh REEP3 (11722064_at) / RFU IGLL1 (11728026_x_at) / Fold change /veh IGLL1 (11728026_x_at): dose or concentration left out as unconfirmed. As to conditions: MV-4-11 cells, 48 hours.

With `Nc1ccc(-c2cccs2)cc1NC(=O)c1ccc2c(c1)cc(C1CC1)n2CCN1CCOCC1` [ACY-1035], the “RFU TMEM53 (11763286_at)” value is recorded as 16.39 RFU.
